Results on 68 compounds are retold here after publication PMC8041284, “Tunable Methacrylamides for Covalent Ligand Directed Release Chemistry” (Journal of the American Chemical Society, 2021).

Where two headings read alike, the source gives them in different places. Where a SMILES comes first, the peptide text is derived from it. [ ]: non-standard residue; d: D form. Dip = N[C@H](C(=O)O)C(c1ccccc1)c1ccccc1

This experiment deals with BTK (Homo sapiens, UniProt Q06187). Put plainly: biochemical.
Sequence of BTK (Q06187 402-655 limits assumed): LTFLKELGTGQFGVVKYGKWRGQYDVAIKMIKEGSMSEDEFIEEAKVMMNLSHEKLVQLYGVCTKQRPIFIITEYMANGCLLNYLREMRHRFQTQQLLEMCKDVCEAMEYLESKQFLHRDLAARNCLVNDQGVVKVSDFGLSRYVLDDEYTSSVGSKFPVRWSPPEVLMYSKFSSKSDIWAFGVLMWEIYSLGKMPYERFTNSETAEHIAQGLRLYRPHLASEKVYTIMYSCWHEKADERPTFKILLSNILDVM
Where [1] appears, read: read-out: BTK inhibition (%), 0.75 uM BTK, […] probe 3l, 15 min preincubation.

Regarding `Cc1ccc2nc(CN(CCN(Cc3nc4ccc(C)cc4[nH]3)Cc3nc4ccc(C)cc4[nH]3)Cc3nc4ccc(C)cc4[nH]3)[nH]c2c1` [PCM-0215616], the inhibition (as a rule, the relative decrease from the control value, in per cent) at 10 µM under setting [1] was 95.8%. For `CNS(=O)(=O)CC1CCC(N(C)c2ncnc3[nH]ccc23)CC1` (centres unmarked) [PCM-0215617], the inhibition at 10 µM under setting [1] is 9.7%.

Take `O=C(Oc1cccc(F)c1OC(=O)c1cccc(O)c1)c1cccc(O)c1` [PCM-0215618]: the inhibition at 10 µM under setting [1] was -5.4%. With `Cc1ccc(OCC(O)C(C)NC(C)C)c2c1CCC2` (centres unmarked) [PCM-0215619], under setting [1], the inhibition at 10 µM was 13.9%.

For `C[C@@H](NC(=O)c1ncnc(N)c1Cl)c1ncc(C(=O)Nc2cc(C(F)(F)F)c(Cl)cn2)s1` [PCM-0215620], the inhibition at 10 µM under setting [1] was -12.4%.

As to `NCCCC[C@H](NC(=O)[C@@H](NC(=O)[C@H](Cc1c[nH]c2ccccc12)NC(=O)[C@H](CCCCN)NC(=O)[C@H](CCCCN)NC(=O)[C@H](Cc1c[nH]c2ccccc12)NC(=O)[C@H](Cc1c[nH]c2ccccc12)NC(=O)[C@H](CCCCN)NC(=O)[C@@H](N)CCCCN)C(c1ccccc1)c1ccccc1)C(N)=O` [PCM-0215623] (H-KKWWKKW[Dip]K-NH2), under setting [1], the inhibition at 10 µM is -11.1%. `C[C@H](Oc1ccc(S(C)(=O)=O)cc1C(=O)N1CCN(c2ncc(C(F)(F)F)cc2F)CC1)C(F)(F)F` [PCM-0215624]: the inhibition at 10 µM under setting [1] is -20.1%.

Regarding `CCn1cc(C(=O)O)c(=O)c2c(N)c(F)c(NC3CCCCC3)cc21` [PCM-0215625], under setting [1], the inhibition at 10 µM was found to be 5.4%. For the compound `CCn1c2ccccc2c2cc(CNCc3ccccc3OC)ccc21` [PCM-0215626], the inhibition at 10 µM under setting [1] was -27.8%.

On to `CCn1cc(-c2cccc(C(F)(F)F)c2)c2sc(C(N)=NC3CCS(=O)(=O)CC3)cc2c1=O` [PCM-0215627], for which the inhibition at 10 µM under setting [1] came to 2.3%. `Nc1ncc(-c2ccnc(Nc3ccncc3)n2)c(CC2CC2)n1` [PCM-0215628]: under setting [1], the inhibition at 10 µM is 8.3%. On to `CCCCCCCC(=O)N[C@H](CN1CCCC1)[C@H](O)c1ccc2c(c1)OCCO2` [PCM-0215629], for which the inhibition at 10 µM under setting [1] is -9.3%. Consider `CN(C(=O)CNC(=O)/C=C/c1cccc(Cl)c1)C1CCS(=O)(=O)CC1` [PCM-0215630], for which the inhibition at 10 µM under setting [1] is -13.9%. Still for that read-out and setting: then `CCCNC(=O)c1cn2ncnc(Nc3cc(C(=O)NC4CC4)ccc3C)c2c1C` [PCM-0215631], with -13.8%; and `CCCN=C1S/C(=C\c2ccc(OC[C@H](O)CO)c(Cl)c2)C(=O)N1c1ccccc1C` [PCM-0215632], with 9%; and `Cc1c[nH]c2nc(Nc3ccc(N4CCN(C)CC4)c(F)c3)nc(-c3cccc(CC#N)c3)c12` [PCM-0215633], with 92.4%. In the case of `CC(C)(CCCCCC(O)CCCCCC(C)(C)C(=O)O)C(=O)O` [PCM-0215634], the inhibition at 10 µM under setting [1] was found to be 0.7%. In the case of `Cc1cc(Nc2ncc3c(n2)N(C)C(=O)N(c2cc(NC(=O)c4cccc(C(F)(F)F)c4)ccc2C)C3)n(C)n1` [PCM-0215636], the inhibition at 10 µM under setting [1] turned out to be 104%.

On to `CC(C)(O)CNc1nc(Nc2ccnc(C(F)(F)F)c2)nc(-c2cccc(C(F)(F)F)n2)n1` [PCM-0215637], for which, under setting [1], the inhibition at 10 µM stood at 19.3%. Turning to `CCC(=C(c1ccc(O)cc1)c1ccc(OCCN(C)C)cc1)c1ccccc1` [PCM-0215638], under setting [1], the inhibition at 10 µM is -11.6%. In the case of `CCN(C)S(=O)(=O)Nc1ccc(F)c(C(=O)c2c[nH]c3ncc(-c4cnc(C5CC5)nc4)cc23)c1F` [PCM-0215639], the inhibition at 10 µM under setting [1] came out at 75.9%.

For the compound `Clc1ccc(C(c2c[nH]c3ccccc23)c2c[nH]c3ccccc23)cc1` [PCM-0215640], under setting [1], the inhibition at 10 µM stood at 71.7%. Consider `O=c1[nH]c(=S)[nH]c2nc(-c3ccccc3)c(-c3ccccc3)nc12` [PCM-0215641], for which, under setting [1], the inhibition at 10 µM stood at 17%. On the same count and under the same terms, with `O=C(NCCCNc1nc(Nc2cccc(CN3CCOCC3)c2)ncc1C1CC1)C1CCC1` [PCM-0215642] the figure was 21.6%; with `CN1CCc2cc(Nc3ncc(C4CC4)c(NCCCNC(=O)C4CCC4)n3)ccc2C1` [PCM-0215643], -8.5%; with `N#CC(C#N)=NNc1ccc(OC(F)(F)F)cc1` [PCM-0215645], 52.5%.

As for `O=C(c1ccc(Cl)cc1)N(Cc1ccccc1)C1CCCCC1` [PCM-0215646], the inhibition at 10 µM under setting [1] came to 20.1%. `O=C(CCN1CCN(C(=O)OCc2cc(Cl)cc(Cl)c2)CC1)c1ccc2[nH]c(=O)oc2c1` [PCM-0215647]: the inhibition at 10 µM under setting [1] was -4.6%. As for `COc1cc(-c2cn(C)c(=O)c3cnccc23)cc(OC)c1CN(C)C` [PCM-0215650], under setting [1], the inhibition at 10 µM is -3.1%.

In the case of `N#Cc1cc2cc(CN3CCC(Nc4ncnc5sc(CC(F)(F)F)cc45)CC3)ccc2[nH]1` [PCM-0215651], the inhibition at 10 µM under setting [1] is 78%. For the compound `COCCOc1cnc2ccn([C@H](C)c3nnc4c(F)cc(-c5cnn(C)c5)cn34)c(=O)c2c1` [PCM-0215653], the inhibition at 10 µM under setting [1] was 15.9%. The same measure, in the same setting: then `Nc1nc(NCCc2ccc(O)cc2)nc2nc(-c3ccco3)nn12` [PCM-0215654], with -4.6%; and `COc1ccc(CCCOC(Cn2ccnc2)c2ccc(OC)cc2)cc1` (centres unmarked) [PCM-0215655], with -8.5%. For the compound `CN[C@@H]1[C@@H](O)[C@@H](O[C@@H]2[C@@H](O)[C@H](O[C@H]3OC(CN)=CC[C@H]3N)[C@@H](N)C[C@H]2N)OC[C@]1(C)O` [PCM-0215656], the inhibition at 10 µM under setting [1] came out at 28.9%. On to `CCOC(=O)c1c2c3c(cccc3[nH]c1=O)C(=O)c1ccccc1-2` [PCM-0215657], for which the inhibition at 10 µM under setting [1] was -20.1%. For `CCCCCCNC(=O)Nc1ccc(S(=O)(=O)Nc2ccc(CCNC[C@H](O)COc3ccc(O)cc3)cc2)cc1` [PCM-0215659], the inhibition at 10 µM under setting [1] was determined as 5.4%. Consider `Cc1ccc(NC(=S)NNc2c([N+](=O)[O-])cc(C(F)(F)F)cc2[N+](=O)[O-])cc1Cl` [PCM-0215660], for which, for the setting “read-out: BTK inhibition (%)”, the inhibition at 10 µM was 90.3%.

Regarding `C=CC(=O)Nc1cccc(Oc2nc(Nc3ccc(N4CCN(C)CC4)cc3)nc3ccsc23)c1` [PCM-0215661], the inhibition at 10 µM under setting [1] stood at 105%.

Regarding `CCOC(=O)COc1ccc(/C=C2\SC(=S)NC2=O)cc1OC` [PCM-0215662], the inhibition at 10 µM under setting [1] was found to be 84.2%. In the case of `CC(=O)c1ccc(NN=C(C(N)=O)C2=NC(C)(C)Cc3ccccc32)cc1` [PCM-0215663], the inhibition at 10 µM under setting [1] was 13.1%. Consider `Nc1ncnc2c1c(I)cn2[C@@H]1O[C@H](CO)[C@@H](O)[C@H]1O` [PCM-0215664], for which the inhibition at 10 µM under setting [1] is 23.9%.

In the case of `O=C(Nc1ccc(Br)cc1)c1ccc(Br)c(S(=O)(=O)NCc2ccccc2)c1` [PCM-0215665], the inhibition at 10 µM under setting [1] is 100%.

`Cc1[nH]cnc1CN1CCc2c(c3ccccc3n2C)C1=O` [PCM-0215666]: under setting [1], the inhibition at 10 µM is -3.4%. As for `Cc1ccccc1-c1cc(N2CCN(C)CC2)ncc1N(C)C(=O)C(C)(C)c1cc(C(F)(F)F)cc(C(F)(F)F)c1` [PCM-0215667], the inhibition at 10 µM under setting [1] is 2.6%. In the case of `CN(C)c1ccc2c(c1)Sc1cc(N(C)C)ccc1N2` [PCM-0215668], under setting [1], the inhibition at 10 µM worked out at 72.6%. Turning to `COc1ccc(N2C(=O)/C(=C\c3ccc([N+](=O)[O-])s3)SC2=S)cc1` [PCM-0215671], under setting [1], the inhibition at 10 µM was determined as 22.4%. Regarding `C[C@H](NC(=O)C(=O)Nc1ccccc1C(C)(C)C)C(=O)N[C@@H](CC(=O)O)C(=O)COc1c(F)c(F)cc(F)c1F` [PCM-0215672], under setting [1], the inhibition at 10 µM is -17.9%. `O=C(c1ccc(Cl)cc1Cl)n1nnc2ccccc21` [PCM-0215673]: the inhibition at 10 µM under setting [1] is 17%. For `Cc1cccc(Oc2cnc(=O)[nH]c2)c1` [PCM-0215674], under setting [1], the inhibition at 10 µM was -17%.

`CO[C@@H](C)Cn1c(=O)n(C)c2cnc3ccc(-c4cncc(C(C)(C)O)c4)cc3c21` [PCM-0215675]: the inhibition at 10 µM under setting [1] was -11%.

For the compound `CCOP(=O)(OCC)C(=Cc1cc(C(C)(C)C)c(O)c(C(C)(C)C)c1)P(=O)(OCC)OCC` [PCM-0215676], the inhibition at 10 µM (read-out: BTK inhibition (%)) was -11.6%.

As to `CCCc1cc(-c2nc(-c3ccc(C)cc3)cs2)ccn1` [PCM-0215677], under setting [1], the inhibition at 10 µM came to 6.9%. Turning to `CC(=O)Nc1nc(-c2cccc(NS(=O)(=O)c3cccc4c(N(C)C)cccc34)c2)cs1` [PCM-0215679], the inhibition at 10 µM under setting [1] came out at 97.3%. Consider `CC[C@H](C)[C@H](NC(=O)[C@H]([C@@H](C)CC)N(C)C(C)=O)C(=O)N[C@H](C(=O)N[C@@H](CC(C)C)C(=O)[C@@]1(C)CO1)[C@@H](C)O` [PCM-0215680], for which the inhibition at 10 µM under setting [1] worked out at 23.9%. Same read-out and setting: then `O=C1C2CCN(CC2)C1(CO)CO` [PCM-0215683], with 0.8%; and `CCn1c(=O)c(-c2ccc(Cl)cc2Cl)cc2cnc(Nc3ccc(N4CCNCC4)c(F)c3)nc21` [PCM-0215684], with 87.6%. Still for that read-out and setting: then `O=S(=O)(O)c1ccc2cc(N=Nc3cc(S(=O)(=O)O)c4cccnc4c3O)ccc2c1` [PCM-0215685], with 54.1%; and `COc1cc2c(cc1OC)CN(C(=O)/C=C/c1c(-c3ccccc3)n(C)c3ncccc13)CC2` [PCM-0215686], with 37.8%. Regarding `Cn1c(-c2ccccc2C(F)(F)F)nnc1C12CCC(c3noc(C4CC(F)(F)C4)n3)(CC1)CC2` [PCM-0215687], the inhibition at 10 µM under setting [1] was -17%. On to `OC[C@H]1O[C@@H](O[C@H]2[C@H](O)[C@@H](O)C(O)O[C@@H]2CO)[C@H](O)[C@@H](O)[C@@H]1O` (some centres unmarked) [PCM-0215689], for which the inhibition at 10 µM under setting [1] is -3.4%. `N[C@@H](CCC(=O)O)C(=O)O` [PCM-0215690]: the inhibition at 10 µM under setting [1] is 10.2%. For the compound `CCOC(=O)/C=C\C(=O)OCC` [PCM-0215691], the inhibition at 10 µM under setting [1] came to 10.1%.

With `O=C(Nc1nccs1)C(c1cc(F)ccc1O)N1Cc2ccccc2C1=O` (centres unmarked) [PCM-0215692], under setting [1], the inhibition at 10 µM amounted to 13.8%. The same measure, in the same setting: with `CC(C)=CC[C@@H](O)C1=CC(=O)c2c(O)ccc(O)c2C1=O` [PCM-0215694] the figure was 69.7%; with `CCCCOc1nc(N)c2c(n1)N(Cc1cccc(CN3CCCC3)c1)CC(=O)N2` [PCM-0215695], 17%. `O=C(O)CCN1C(=O)/C(=C/c2ccc(-c3ccc([N+](=O)[O-])cc3)o2)SC1=S` [PCM-0215696]: the inhibition at 10 µM under setting [1] stood at 59.5%. Regarding `CCn1nc(C2CCN(C(=O)CCO)CC2)nc1-c1cnc(N)c(-c2nnc(C(C)(C)C)o2)n1` [PCM-0215697], the inhibition at 10 µM under setting [1] is 9.7%. In the case of `COc1ccc(Cn2c3ncnc4c(ncn4Cc4ccc(OC)cc4)c-3nc2=O)cc1` [PCM-0215699], the inhibition at 10 µM under setting [1] was found to be 7.7%.
